Experiment: Log P by HPLC on reversed phase columns (EEC directive 79/831 Annex V.A8)
Format: physicochemical
Conditions: for chromatographic logP: reversed phase HPLC columns
Method: In the above tables, measurement of Log P values was performed according to EEC directive 79/831 Annex V.A8 by HPLC (High Performance Liquid Chromatography) on reversed phase columns with the following methods: • ^[a] Log P value is determined by measurement of LC-UV, in an acidic range, with 0.1% formic acid in water and acetonitrile as eluent (linear gradient from 10% acetonitrile to 95% acetonitrile). • ^[b] Log P value is determined by measurement of LC-UV, in a neutral range, with 0.001 molar ammonium acetate solution in water and acetonitrile as eluent (linear gradient from 10% acetonitrile to 95% acetonitrile). • ^[c] Log P value is determined by measurement of LC-UV, in an acidic range, with 0.1% phosphoric acid and acetonitrile as eluent (linear gradient from 10% acetonitrile to 95% acetonitrile). If more than one Log P value is available within the same method, all the values are given and separated by “+”. Calibration was done with straight-chain alkan2-ones (with 3 to 16 carbon atoms) with known Log P values (measurement of Log P values using retention times with linear interpolation between successive alkanones). Lambda-max-values were determined using UV-spectra from 200 nm to 400 nm and the peak values of the chromatographic signals.

[1] = method [a]: LC-UV, acidic range, 0.1% formic acid in water and acetonitrile
[2] = LogP method [a], compounds of formula (I), Table 1.1
[3] = method marker [a] given with each value, Table 1.1, compounds of formula (I)
[4] = method [a], compounds of formula (I), Table 1.1

For `CCOC(=O)C1(NC(=O)c2sc(Cl)c(C#N)c2Br)CC1` [1.0655], which LogP (method [a]) is on record?
The LogP was 2.69^[a].

For `COC(=O)[C@H](Cc1ccccc1)NC(=O)[C@H](CC(=O)O)NC(=O)c1sc(Cl)c(Br)c1C` [I.0340], which LogP [1] is on record?
Its LogP is 3.13^[a].

For `O=C(O)c1sc(Cl)c(Cl)c1C(F)F` [II.003], which LogP [1] is on record?
The LogP was 2.39^[a].

With `O=C(NC1(C(=O)O)CCC1)c1sc(Br)c(Br)c1Cl` [1.0490] as the molecule, how does the LogP [2] read?
The LogP was 2.92^[a].

Which LogP (method marked [a]) does the source give for `CCOC(=O)CNC(=O)c1sc(F)c(Br)c1C` [1.0317] here?
Its LogP is 2.67^[a].

With `COC(=O)CNC(=O)c1sc(F)c(Cl)c1C` [1.0296] as the molecule, how does the LogP (method marked [a]) read?
The LogP was 2.23^[a].

Which LogP (method marked [a]) does the source give for `COC(=O)C(CC(F)F)NC(=O)c1sc(Br)c(Br)c1C(F)(F)F` (stereo not shown) [1.0374] here?
The LogP was 3.31^[a].

With `COC(=O)CNC(=O)c1sc(F)c(Br)c1Br` [1.0698] as the molecule, how does the LogP (method marked [a]) read?
The LogP was 2.60^[a].

With `CCOC(=O)C(C#N)NC(=O)c1sc(Cl)c(Cl)c1Br` (stereo not shown) [1.0743] as the molecule, how does the LogP (method marked [a]) read?
Its LogP is 3.35^[a].

Which LogP (method marked [a]) does the source give for `CCOC(=O)C(CC(C)C)NC(=O)c1sc(Br)c(Br)c1C(F)F` (stereo not shown) [1.0362] here?
The LogP was 4.45^[a].

With `Cc1c(C(=O)NC2(C(=O)OC(C)(C)C)CC2)sc(C#N)c1Br` [1.0971] as the molecule, how does the LogP [3] read?
The LogP was 3.28^[a].

Which LogP [3] does the source give for `CCOC(=O)CN(C(=O)c1sc(Br)c(Br)c1F)C1CC1` [1.0938] here?
The LogP was 3.64^[a].

For `COC(=O)C(CCSC(C)=O)NC(=O)c1sc(Br)c(Br)c1Cl` (stereo not shown) [1.1025], which LogP [3] is on record?
The LogP was 3.98^[a].

Which LogP [4] does the source give for `CCOC(=O)C1(NC(=O)c2cc(Br)c(C#N)s2)CC1` [1.0053] here?
The LogP was 2.45^[a].

With `O=C(N[C@H]1CCOC1=O)c1sc(Br)c(Br)c1Cl` [I.0932] as the molecule, how does the LogP [1] read?
The LogP was 2.62^[a].

Which LogP [3] does the source give for `COC(=O)C1(NC(=O)c2sc(Br)c(Br)c2F)CCC1` [1.0979] here?
Its LogP is 3.32^[a].

With `CCCOC(=O)C1(NC(=O)c2sc(Cl)c(Br)c2F)CC1` [1.0643] as the molecule, how does the LogP (method [a]) read?
The LogP was 3.52^[a].

Which LogP [3] does the source give for `CCOC(=O)C(CO)NC(=O)c1sc(Br)c(Br)c1C(F)F` (stereo not shown) [1.1064] here?
The LogP was 2.63^[a].

Which LogP [4] does the source give for `CCOC(=O)C(Cc1ccc(O)cc1)NC(=O)c1sc(Br)c(Cl)c1C` (stereo not shown) [1.0130] here?
The LogP was 3.29^[a].

With `O=C(NC(C(=O)O)C1CC1)c1sc(Br)c(Br)c1F` (stereo not shown) [1.0294] as the molecule, how does the LogP (method marked [a]) read?
The LogP was 2.64^[a].

Which LogP (method marked [a]) does the source give for `N#Cc1sc(C(=O)NC2(C(N)=O)CC2)c(Cl)c1Cl` [1.0788] here?
The LogP was 1.67^[a].

Which LogP (method marked [a]) does the source give for `COC(=O)C(CCSC)NC(=O)c1sc(Cl)c(Br)c1C` (stereo not shown) [1.0735] here?
The LogP was 3.63^[a].

With `COC(=O)c1sc(Cl)c(Br)c1F` [II.025] as the molecule, how does the LogP [1] read?
Its LogP is 3.47^[a].

With `CCOC(=O)C1(NC(=O)c2sc(Cl)c(Br)c2Cl)CCC1` [1.0182] as the molecule, how does the LogP (method [a]) read?
The LogP was 4.33^[a].

For `Cc1c(C(=O)NC2CCSC2=O)sc(Br)c1Cl` (stereo not shown) [I.0822], which LogP [1] is on record?
The LogP was 3.46^[a].

Which LogP (method marked [a]) does the source give for `CCOC(=O)C(NC(=O)c1cc(C#N)c(Cl)s1)C(C)C` (stereo not shown) [1.0382] here?
Its LogP is 3.20^[a].

For `O=C(NC(C(=O)NC(C(=O)O)C1CC1)C1CC1)c1cc(Br)c(Cl)s1` (stereo not shown) [1.0288], which LogP (method marked [a]) is on record?
The LogP was 2.49^[a].

Which chromatographic logP [1] does the source give for `COC(=O)c1sc(Br)c(Br)c1C(F)F` [II.055, methyl 4,5-dibromo-3-(difluoromethyl)thiophene-2-carboxylate] here?
The chromatographic logP was 3.81.

And the chromatographic logP (value in preparation example, method not marked)?
The chromatographic logP was 3.81.

With `CCOC(=O)C(NC(=O)c1cc(Br)c(F)s1)C(C)C` (stereo not shown) [1.0313] as the molecule, how does the LogP (method marked [a]) read?
Its LogP is 3.54^[a].

With `CCOC(=O)C(Cc1ccccc1)NC(=O)c1sc(Br)c(C(F)F)c1Br` (stereo not shown) [1.0504] as the molecule, how does the LogP [2] read?
The LogP was 4.40^[a].

For `CCSC(=O)C(CC(C)C)NC(=O)c1sc(Br)c(Br)c1F` (racemic) [1.0013], which LogP [4] is on record?
The LogP was 5.05^[a].

With `CCOC(=O)C(C)(C)NC(=O)c1sc(Br)c(Cl)c1C` [1.0764] as the molecule, how does the LogP (method marked [a]) read?
The LogP was 3.71^[a].

With `NC(=O)CNC(=O)c1sc(Br)c(Br)c1F` [1.0894] as the molecule, how does the LogP (method [a]) read?
The LogP was 1.69^[a].

Which LogP (method marked [a]) does the source give for `COC(=O)C(C)(C)NC(=O)c1sc(F)c(Br)c1Br` [1.0708] here?
The LogP was 3.38^[a].

With `CCOC(=O)CNC(=O)c1sc(Br)c(Br)c1C#N` [1.0797] as the molecule, how does the LogP (method [a]) read?
The LogP was 2.59^[a].

With `CCOC(=O)C(C)NC(=O)c1sc(Cl)c(Br)c1C` (stereo not shown) [1.0122] as the molecule, how does the LogP [4] read?
The LogP was 3.37^[a].

With `CCOC(=O)[C@H](CO)NC(=O)c1sc(Cl)c(Cl)c1Br` [1.0816] as the molecule, how does the LogP (method [a]) read?
The LogP was 2.84^[a].

Which LogP (method marked [a]) does the source give for `COC(=O)C(NC(=O)c1sc(C#N)c(Cl)c1Br)C1CC1` (stereo not shown) [1.0670] here?
The LogP was 3.07^[a].

Which LogP (method [a]) does the source give for `COC(=O)CNC(=O)c1sc(Br)c(Cl)c1Cl` [1.0194] here?
Its LogP is 2.86^[a].

With `O=C(NC1(C(=O)OC2CCC2)CC1)c1cc(Cl)c(Br)s1` [1.0599] as the molecule, how does the LogP (method [a]) read?
The LogP was 3.43^[a].

Which LogP [1] does the source give for `N#Cc1c(Br)sc(C(=O)O)c1Br` [II.044] here?
The LogP was 1.73^[a].

For `CCOC(=O)C(Cc1ccccc1)NC(=O)c1sc(Br)c(Cl)c1Cl` (stereo not shown) [1.0204], which LogP (method [a]) is on record?
Its LogP is 5.00^[a].

For `O=C(NC1CCNC1=O)c1cc(Br)c(Cl)s1` (stereo not shown) [I.0222], which LogP [1] is on record?
The LogP was 1.73^[a].

Which LogP (method [a]) does the source give for `COC(=O)C(CC(F)F)NC(=O)c1sc(Br)c(Br)c1Cl` (stereo not shown) [1.0146] here?
Its LogP is 3.62^[a].

Which LogP [4] does the source give for `CCOC(=O)C1(NC(=O)c2sc(C#N)c(Br)c2C)CC1` [1.0026] here?
The LogP was 2.58^[a].
